Results on 29 compounds are retold here after the Kinase Knowledgebase extract (Sharma et al. 2016).

Some results are limits rather than exact numbers.

The target in one test is CDK2 (human) (UniProt P24941). Description: Enzyme Assay.
Details: not given
Broadly, the IC50 is the point on the concentration scale where inhibition reaches its midpoint. A low value points to greater potency. `O=C1Nc2ccc(F)c3c(N4CCCC(CO)C4)cc(-c4ccc[nH]4)c1c23` (stereo not given): the IC50 is ≤ 10 µM.
As for `O=C1Nc2ccc(F)c3c(N4CCC(O)CC4)cc(-c4ccc[nH]4)c1c23`, the IC50 was ≤ 10 µM.
For the compound `O=C1Nc2ccc(F)c3ccc(-c4ccc[nH]4)c1c23`, the half-inhibitory concentration (IC50) was ≤ 10 µM.
Consider `NCC[S+]([O-])c1cc(-c2ccc[nH]2)c2c3c(ccc(F)c13)NC2=O` (stereo not given), for which the IC50 is ≤ 10 µM.
The same measure, in the same setting: to `O=C1Nc2ccc(F)c3c(N4CCNCC4)cc(-c4ccc[nH]4)c1c23` belongs ≤ 10 µM; to `COc1cc(-c2ccc[nH]2)c2c3c(ccc(F)c13)NC2=O`, ≤ 10 µM.
On to `O=C1Nc2ccc(F)c3c(OCCO)cc(-c4ccc[nH]4)c1c23`, for which the half-maximal inhibitory concentration (IC50) is ≤ 10 µM.
Still for that read-out and setting: the result for `O=C1Nc2ccc(F)c3c(NCCO)cc(-c4ccc[nH]4)c1c23` reads ≤ 10 µM.
Same read-out and setting: to `CCC(C)c1cc(-c2ccc[nH]2)c2c3c(ccc(F)c13)NC2=O` (stereo not given) belongs ≤ 10 µM; to `NCCSc1cc(-c2ccc[nH]2)c2c3c(ccc(F)c13)NC2=O`, ≤ 10 µM.
Still for that read-out and setting: the result for `CCN(CC)CCNc1cc(-c2ccc[nH]2)c2c3c(ccc(F)c13)NC2=O` reads ≤ 10 µM; that for `O=C1Nc2ccc(F)c3c(N4CC[C@@H](O)C4)cc(-c4ccc[nH]4)c1c23`, ≤ 10 µM.
With `CC(C)(N)CNc1cc(-c2ccc[nH]2)c2c3c(ccc(F)c13)NC2=O`, the IC50 is ≤ 10 µM.
Same read-out and setting: the result for `CC(=O)NCCNc1cc(-c2ccc[nH]2)c2c3c(ccc(F)c13)NC2=O` reads ≤ 10 µM; that for `Cc1cc(-c2ccc[nH]2)c2c3c(ccc(F)c13)NC2=O`, ≤ 10 µM; that for `NCCS(=O)(=O)c1cc(-c2ccc[nH]2)c2c3c(ccc(F)c13)NC2=O`, ≤ 10 µM.
The same measure, in the same setting: to `O=C1Nc2ccc(F)c3c(SCCO)cc(-c4ccc[nH]4)c1c23` belongs ≤ 10 µM.
The same measure, in the same setting: to `NCCCNc1cc(-c2ccc[nH]2)c2c3c(ccc(F)c13)NC2=O` belongs ≤ 10 µM; to `CCOc1cc(-c2ccc[nH]2)c2c3c(ccc(F)c13)NC2=O`, ≤ 10 µM.
Regarding `O=C1Nc2ccc(F)c3c2C1=C(c1ccc[nH]1)CC3`, the IC50 is ≤ 10 µM.
For `NCCOc1cc(-c2ccc[nH]2)c2c3c(ccc(F)c13)NC2=O`, the IC50 was ≤ 10 µM.
Still for that read-out and setting: the result for `O=C1Nc2ccc(F)c3c(S(=O)(=O)CCO)cc(-c4ccc[nH]4)c1c23` reads ≤ 10 µM; that for `O=C1Nc2ccc(F)c3c(OCCCO)cc(-c4ccc[nH]4)c1c23`, ≤ 10 µM; that for `O=C1Nc2ccc(F)c3c(N4CCCC(O)C4)cc(-c4ccc[nH]4)c1c23` (stereo not given), ≤ 10 µM.
Same read-out and setting: the result for `Cc1c[nH]c(-c2cc(SCCN)c3c(F)ccc4c3c2C(=O)N4)c1C` reads ≤ 10 µM; that for `O=C1Nc2ccc(F)c3c(N4CCOCC4)cc(-c4ccc[nH]4)c1c23`, ≤ 10 µM; that for `O=C1Nc2ccc(F)c3c(N4CCNC4=O)cc(-c4ccc[nH]4)c1c23`, ≤ 10 µM.
Still for that read-out and setting: to `CCc1cc(-c2ccc[nH]2)c2c3c(ccc(F)c13)NC2=O` belongs ≤ 10 µM.

A further test addresses CDK2 (human) (UniProt P24941). Description: Cell-Based Assay. Conditions: mda-mb-435.
Consider `O=C1Nc2ccc(F)c3c(N4CCCC(CO)C4)cc(-c4ccc[nH]4)c1c23` (stereo not given), for which the IC50 is ≤ 10 µM.
Same read-out and setting: to `NCC[S+]([O-])c1cc(-c2ccc[nH]2)c2c3c(ccc(F)c13)NC2=O` (stereo not given) belongs ≤ 10 µM.
On the same count and under the same terms, the result for `O=C1Nc2ccc(F)c3c(N4CCCC(O)C4)cc(-c4ccc[nH]4)c1c23` (stereo not given) reads ≤ 10 µM.

Still in this test, the particulars now being: rko.
Take `O=C1Nc2ccc(F)c3c(N4CCCC(CO)C4)cc(-c4ccc[nH]4)c1c23` (stereo not given): the IC50 is ≤ 10 µM.
On the same count and under the same terms, to `NCC[S+]([O-])c1cc(-c2ccc[nH]2)c2c3c(ccc(F)c13)NC2=O` (stereo not given) belongs ≤ 10 µM.
On the same count and under the same terms, to `O=C1Nc2ccc(F)c3c(N4CCCC(O)C4)cc(-c4ccc[nH]4)c1c23` (stereo not given) belongs ≤ 10 µM; to `O=C1Nc2ccc(F)c3c([S+]([O-])CCO)cc(-c4ccc[nH]4)c1c23` (stereo not given), ≤ 10 µM.
